Earlier results, collected in patent publication US20180256623A1, “COMPOSITIONS AND METHOD FOR REGULATING ADIPOSE TISSUE LIPOLYSIS, INSULIN-RESISTANCE, AND HYPERGLYCEMIA” (University of Virginia Patent Foundation, priority 2015, published 2018).
Read-outs that look alike come from different tables or passages of the source.

Assays:
[1] = system: 3T3-L1; conditions: means of three experiments, cited from earlier work
[2] = target: T1, HSL (Homo sapiens, UniProt Q05469); conditions: means of three experiments, cited from earlier work
T1 sequence (Q05469 1-1076): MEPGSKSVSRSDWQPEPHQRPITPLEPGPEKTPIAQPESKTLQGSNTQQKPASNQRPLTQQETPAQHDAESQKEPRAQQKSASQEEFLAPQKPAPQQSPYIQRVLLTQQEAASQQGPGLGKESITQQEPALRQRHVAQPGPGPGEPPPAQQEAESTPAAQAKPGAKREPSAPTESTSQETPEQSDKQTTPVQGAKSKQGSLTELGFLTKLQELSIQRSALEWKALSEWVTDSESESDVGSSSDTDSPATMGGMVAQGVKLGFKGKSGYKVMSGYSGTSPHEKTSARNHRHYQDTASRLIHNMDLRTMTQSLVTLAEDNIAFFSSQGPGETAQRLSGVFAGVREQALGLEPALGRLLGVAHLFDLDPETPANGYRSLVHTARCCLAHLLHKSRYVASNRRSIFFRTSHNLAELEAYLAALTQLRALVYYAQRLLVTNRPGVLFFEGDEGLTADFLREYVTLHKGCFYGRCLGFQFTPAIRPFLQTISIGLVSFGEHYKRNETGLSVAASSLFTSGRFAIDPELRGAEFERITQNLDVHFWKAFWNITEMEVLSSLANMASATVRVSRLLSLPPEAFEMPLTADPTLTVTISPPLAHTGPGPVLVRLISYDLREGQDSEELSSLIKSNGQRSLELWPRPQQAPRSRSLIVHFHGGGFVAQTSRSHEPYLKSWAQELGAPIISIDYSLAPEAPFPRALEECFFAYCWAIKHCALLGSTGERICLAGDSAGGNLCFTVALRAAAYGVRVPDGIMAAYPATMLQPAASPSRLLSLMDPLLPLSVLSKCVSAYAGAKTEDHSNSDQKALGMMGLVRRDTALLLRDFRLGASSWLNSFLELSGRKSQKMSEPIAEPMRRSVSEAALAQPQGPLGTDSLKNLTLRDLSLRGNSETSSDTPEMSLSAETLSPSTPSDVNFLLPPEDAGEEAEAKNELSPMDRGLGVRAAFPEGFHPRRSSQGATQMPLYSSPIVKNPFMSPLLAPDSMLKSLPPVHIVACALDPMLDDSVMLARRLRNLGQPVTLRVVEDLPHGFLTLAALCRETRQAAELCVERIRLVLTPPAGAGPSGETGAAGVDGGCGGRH

[3] = Table 1, 4-substituted 5-(2H)-isoxazolones
[4] = Table 3, cyclic amine-derived ureas, Na = not active
[5] = Table 2, acyclic ureas, Na = not active

Cc1c(Sc2ccc(Cl)cc2)c(=O)on1C(=O)N1CCCCC1 [Compound 1]
IC50 [1, 3]: 135 nM

Cc1c(Sc2ccccc2)c(=O)on1C(=O)N1CCCCC1 [Compound 3]
IC50 [1, 3]: 190 nM

Cc1c(Cc2ccccc2)c(=O)on1C(=O)N1CCCCC1 [Compound 4]
IC50 [1, 3]: 90 nM

Cc1c(C)n(C(=O)N2CCCCC2)oc1=O [Compound 5]
IC50 [1, 3]: 655 nM

CCc1c(C)n(C(=O)N2CCCCC2)oc1=O [Compound 6]
IC50 [1, 3]: 325 nM

Cc1c(C(C)C)c(=O)on1C(=O)N1CCCCC1 [Compound 8]
IC50 [1, 3]: 75 nM
IC50 [1, 4]: 75 nM
IC50 ([1]; piperidine derivatives, Na = not active): 75 nM

Cc1c(CC(C)C)c(=O)on1C(=O)N1CCCCC1 [Compound 9]
IC50 [1, 3]: 32 nM

Cc1c(C(C)(C)C)c(=O)on1C(=O)N1CCCCC1 [Compound 10]
IC50 [1, 3]: 90 nM

Cc1c(C2CCCC2)c(=O)on1C(=O)N1CCCCC1 [Compound 11]
IC50 [1, 3]: 22 nM

Cc1c(C2CCCCC2)c(=O)on1C(=O)N1CCCCC1 [Compound 12]
IC50 [1, 3]: 27 nM

Cc1c(C2CCOCC2)c(=O)on1C(=O)N1CCCCC1 [Compound 13]
IC50 [1, 3]: 200 nM

Cc1c(C2CCSCC2)c(=O)on1C(=O)N1CCCCC1 [Compound 14]
IC50 [1, 3]: 98 nM

Cc1c(C2CCSCC2)c(=O)on1C(=O)N1CCCCC1 [Compound 15]
IC50 [1, 3]: 380 nM
IC50 [2, 3]: 55 nM

COCCc1c(C)n(C(=O)N2CCCCC2)oc1=O [Compound 16]
IC50 [1, 3]: 180 nM

Cc1c(CCOc2ccccc2)c(=O)on1C(=O)N1CCCCC1 [Compound 17]
IC50 [1, 3]: 2 nM

Cc1c(-c2ccccc2)c(=O)on1C(=O)N1CCCCC1 [Compound 19]
IC50 [1, 3]: 150 nM
IC50 [2, 3]: 17 nM

Cc1c(C(C)C)c(=O)on1C(=O)NC(C)(C)C [Compound 20]
IC50 [2, 5]: > 1000 nM

Cc1c(C(C)C)c(=O)on1C(=O)Nc1ccccc1 [Compound 21]
IC50 [2, 5]: > 1000 nM

Cc1c(C(C)C)c(=O)on1C(=O)N(C)C1CCCCC1 [Compound 24]
IC50 [1, 5]: > 1000 nM

Cc1c(C(C)C)c(=O)on1C(=O)N(C)Cc1ccccc1 [Compound 25]
IC50 [1, 5]: 67 nM

Cc1c(C(C)C)c(=O)on1C(=O)N(C)Cc1ccccc1F [Compound 26]
IC50 [1, 5]: 10 nM

Cc1c(C(C)C)c(=O)on1C(=O)N(C)Cc1ccc(F)cc1 [Compound 28]
IC50 [1, 5]: 1000 nM

Cc1c(C(C)C)c(=O)on1C(=O)N(C)Cc1ccco1 [Compound 30]
IC50 [1, 5]: 9 nM

Cc1c(C(C)C)c(=O)on1C(=O)N(C)CCc1ccccc1 [Compound 33]
IC50 [1, 5]: 300 nM

Cc1c(C(C)C)c(=O)on1C(=O)N(C)c1ccc(Cl)cc1 [Compound 37]
IC50 [1, 5]: > 1000 nM

CCN(CC)C(=O)n1oc(=O)c(C(C)C)c1C [Compound 39]
IC50 [1, 5]: 600 nM

Cc1c(C(C)C)c(=O)on1C(=O)N1CCCC1 [Compound 41]
IC50 [1, 4]: 28 nM

Cc1c(C(C)C)c(=O)on1C(=O)N1CC=CC1 [Compound 43]
IC50 [1, 4]: 120 nM

Cc1c(C(C)C)c(=O)on1C(=O)N1CCc2ccccc21 [Compound 44]
IC50 [2, 4]: > 1000 nM

Cc1c(C(C)C)c(=O)on1C(=O)N1CCNCC1 [Compound 46]
IC50 [2, 4]: > 1000 nM
